“Also recorded” adds a separate entry of the source.
Assays:
ovariectomized rats [1] = details: treatment with 5-diol
[2] = system: DMBA-induced mammary carcinoma; test: Development of DMBA-induced mammary carcinoma in the rat; assay type: in vivo; details: 279 days after DMBA
Procedure: (§1) Female Sprague-Dawley rats [Crl:CD(SD)Br] were obtained at 44-46 days of age from Charles River Canada Inc. (St. Constant, Quebec) and housed 2 per cage in a light (12 h light/day; lights on at 07:15 h)-and temperature (22±2° C.)-controlled environment. Animals received Purina rodent chow and tap water ad libitum. The animal studies were conducted in a Canadian Council on Animal Care (CCAC)-approved facility in agreement with the CCAC Guide for Care and Use of Experimental Animals.
Mammary carcinomas were induced by a single intragastric administration of 20 mg of DMBA (Sigma Chemical Co., St. Louis, Mo.) in 1 ml of corn oil at 50-52 days of age. Two months later, tumor measurement was performed biweekly. The two largest perpendicular diameters of each tumor were recorded with calipers to estimate tumor size as described (Asselin et al., Endocrinology 101: 666-671, 1977). Tumor site, size and number were recorded.
(§2) The animals were randomly divided into groups each containing 20 rats with the exception of 40 animals in the control group. […] Treatment was initiated 3 days before the oral administration of DMBA. EM-800 was synthesized in the Medicinal Chemistry Division of our laboratory while DHEA was purchased from Steraloids Inc., Wilton, N.H.
Many of the control animals and some of EM-800- or DHEA-treated animals were sacrificed by cervical dislocation under isoflurane-induced anesthesia 6 months after DMBA administration because of the too large size of tumors. The values of tumor size and number of these rats at sacrifice, together with those measured at later time intervals from the surviving animals, were used for the later analysis of the incidence of tumors, average tumor number per tumor-bearing rat and average tumor size per tumor-bearing animal. […] Rats were sacrificed 279 days after DMBA administration.
Statistical significance was measured according to the multiple range test of Duncan-Kramer (Biometrics 12: 307-310, 1956). Analysis of the incidence of development of mammary tumors was performed using the Fisher's exact test (Conover, Practical nonparametric statistics, 2nd Edition 153-170, 1980). The data are presented as means±S.E.M.

female rat = test: Bone mineral density (DEXA) after 9-month treatment; assay type: in vivo; details: DHEA 10 mg percutaneously, EM-800 75 μg orally, once daily, alone or in combination, 9 months
Procedure: as §1, §2
Rats were anesthetized with an i.p. injection of ketamine hydrochloride and diazepam at doses of 50 and 4 mg/kg B.W., respectively. The whole skeleton and the right femur were scanned using dual energy X-ray absorptiometry (DEXA; QDR 2000-7.10C, Hologic, Waltham, Mass.) equipped with a Regional High Resolution software. The scan field sizes were 28.110×17.805 cm and 5.0×1.902 cm, the resolutions were 0.1511×0.0761 cm and 0.0254×0.0127 cm, while the scan speeds were 0.3608 and 0.0956 mm/sec for total skeleton and femur, respectively. Both bone mineral content (BMC) and bone mineral density (BMD) of total skeleton, lumbar spine, and femur were measured on the scan images of total skeleton and femur.

rat [3] = test: Urine and serum biochemical parameters of bone metabolism; assay type: in vivo; details: DHEA 10 mg percutaneously, EM-800 75 μg orally, once daily, alone or in combination, 9 months
Text: as §2
(§3) Twenty-four-hour urinary samples were collected at the end of the experiment from the first 9 rats of each group following transfer in metabolic cages (Allentown Caging Equipment Co., Allentown, N.J.). Two urinary samples were collected and analyzed on different days for each animal in order to minimize the influence of daily variation. Therefore, each value shown represents the mean of the two measurements performed on two different days. 0.5 ml of toluene was added into the urine collecting tubes to prevent urine evaporation and bacterial growth and the urinary volume was recorded. Trunk blood was collected at sacrifice and was allowed to clot at 4° C. overnight before centrifugation at 3000 rpm for 30 min.
(§4) Fresh samples were used for the assay of urinary creatinine, calcium, and phosphorus as well as serum total alkaline phosphatase (tALP) activity, cholesterol and triglycerides. These biochemical parameters were measured automatically with a Monarch 2000 Chemistry System (Instrumentation Laboratory Co. Lexington, Mass.) under Good Laboratory Practice conditions. Urinary hydroxyproline was measured as described (Podenphant et al., Clinica Chimica Acta 142: 145-148, 1984).

rat [4] = test: Serum triglyceride and cholesterol levels after 9-month treatment; assay type: in vivo; details: DHEA 10 mg percutaneously, EM-800 75 μg orally, once daily, alone or in combination, 9 months
Text: as §2, §3, §4

[5] = system: ovariectomized (OVX) nude mice supplemented with estrone; test: Uterine, vaginal and body weight in OVX nude mice bearing ZR-75-1 xenografts; details: OVX+E1 nude mice
Procedure: A posteriori pairwise comparisons were performed using Fisher's test for least significant difference. Main effects and the interaction of treatments on body weight and organ weight were analyzed using a standard two-way ANOVA with interactions. All ANOVAs were performed using SAS program (SAS Institute, Cary, N.C., USA). Significance of differences were declared using a 2-tailed test with an overall level of 5%.

ovariectomized rats [6] = test: Bone histomorphometry of tibia after 12-month treatment of ovariectomized rats; assay type: in vivo, rat; details: 12 months, histology
Procedure: Intact animals are added as additional controls. Data are presented as mean±SEM **p<0.01 versus OVX Control.
Modified trichrome Masson-Goldner, magn. ×80. T: Trabeculae, GP: Growth Plate.

[7] = Example 5 table: serum, urinary and GnRH mRNA parameters in OVX groups; assay type: in vivo; details: doses not given; for LH: LD: Limit of Detection: 0.01 ng/ml
[8] = aged Sprague-Dawley rats; reduced from 600 g, food intake unaffected; cited from earlier work
[9] = system: human ZR-75-1 breast tumor xenografts; test: Growth of human ZR-75-1 breast tumor xenografts in OVX nude mice supplemented with estrone; details: 9.5 months
estrogen receptor = target: T1, estrogen receptor (Homo sapiens, UniProt P03372); test: Testing of antiestrogens for function as SERM
T1 sequence (P03372 1-595): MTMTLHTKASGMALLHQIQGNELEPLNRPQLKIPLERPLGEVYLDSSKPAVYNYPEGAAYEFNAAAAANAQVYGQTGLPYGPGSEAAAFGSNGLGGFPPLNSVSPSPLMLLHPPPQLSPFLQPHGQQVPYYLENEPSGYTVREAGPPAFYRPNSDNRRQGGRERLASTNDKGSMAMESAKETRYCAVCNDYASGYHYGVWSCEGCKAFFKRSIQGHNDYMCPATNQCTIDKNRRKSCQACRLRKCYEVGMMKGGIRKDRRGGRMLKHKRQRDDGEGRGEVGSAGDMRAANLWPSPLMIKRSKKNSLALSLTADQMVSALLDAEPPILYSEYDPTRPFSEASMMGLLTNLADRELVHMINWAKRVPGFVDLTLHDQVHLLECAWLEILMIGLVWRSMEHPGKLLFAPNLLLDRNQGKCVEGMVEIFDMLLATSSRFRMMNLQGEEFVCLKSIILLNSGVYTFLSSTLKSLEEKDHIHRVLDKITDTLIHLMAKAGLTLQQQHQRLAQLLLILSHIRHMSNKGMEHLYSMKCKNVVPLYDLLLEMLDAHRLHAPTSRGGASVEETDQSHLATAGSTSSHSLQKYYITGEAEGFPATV

Solid state stability = assay type: physicochemical
postmenopausal women = details: cited from earlier work
[10] = DHEA 0.3 mg percutaneously, alone or with EM-800 15 μg, OVX+E1 0.5 μg nude mice
[11] = DHEA 1.0 mg percutaneously, alone or with EM-800 15 μg, OVX+E1 0.5 μg nude mice
[12] = DHEA 3.0 mg percutaneously, alone or with EM-800 15 μg, OVX+E1 0.5 μg nude mice
[13] = E1 0.5 μg s.c. daily alone, OVX nude mice

Compound: C[C@]12CC[C@H]3[C@@H](CC=C4C[C@@H](O)CC[C@@]43C)[C@@H]1CC[C@@H]2O [5-diol, androst-5-ene-3β,17β-diol]
- serum alkaline phosphatase activity (ovariectomized rats [1]): marked stimulation

Compound: C[C@]12CC[C@H](O)CC1=CC[C@@H]1[C@@H]2CC[C@]2(C)C(=O)CC[C@@H]12 [DHEA, dehydroepiandrosterone]
- incidence of DMBA-induced mammary carcinoma (animals with palpable tumors) ([2]; DHEA 10 mg percutaneously, EM-800 75 μg orally, once daily, control 95%): 57%
- average tumor number per tumor-bearing animal ([2]; end of experiment, DHEA 10 mg, EM-800 75 μg daily, control 4.7±0.5): 3.4±0.7 tumors/animal
- average tumor area per tumor-bearing animal ([2]; end of experiment, DHEA 10 mg, EM-800 75 μg daily, control 12.8±1.3): 10.2±2.1 cm^2
- BMD FEMUR (female rat): 0.3408 ± 0.0038 g/cm2
- BMD LUMBAR SPINE (female rat): 0.2163 ± 0.0049 g/cm2
- BMD TOTAL SKELETON (female rat): 0.1465 ± 0.0010 g/cm2
- increase in BMD of femur versus control (female rat): 8.2%
- increase in BMD of lumbar spine versus control (female rat): 10.6%
- increase in BMD of total skeleton versus control (female rat): 6.9%
- decrease of daily urinary calcium excretion versus control (rat [3]): no effect
- decrease of daily urinary phosphorus excretion versus control (rat [3]): no effect
- decrease of urinary hydroxyproline/creatinine ratio versus control (rat [3]): no effect; also recorded: did not affect; also recorded: did not show any effect
- decrease of serum cholesterol levels (rat [4]): unaffected
- decrease of serum triglyceride levels (rat [4]): 60%
- effect of addition of DHEA on estrone-stimulated vaginal weight ([5]; DHEA 0.3, 1.0 or 3.0 mg): no significant effect
- effect on body weight adjusted for tumor weight ([5]; 9.5 months): No significant effect
- effect on trabecular bone volume of proximal tibia metaphysis (FIG. 8) (ovariectomized rats [6]): significant increase in trabecular bone volume
- GnRH mRNA levels silver grains per cell [7]: 34.5 ± 0.7 silver grains per cell
- Triglycerides [7]: 0.8 ± 0.1 mmol/L
- Urinary OH-proline/creatinin [7]: 7.3 ± 1.0 μmol/mmol
- LH [7]: 0.02 ± 0.01 ng/mL
- body weight [8]: 550 g
- Complete response, (%) [9, 10]: 28.6%
- Complete response, number [9, 10]: 4
- Partial response, (%) [9, 10]: 0 (0) %
- Partial response, number [9, 10]: 0 (0)
- Progression, (%) [9, 10]: 50.0%
- Progression, number [9, 10]: 7
- Stable response, (%) [9, 10]: 21.4%
- Stable response, number [9, 10]: 3
- Complete response, (%) [9, 11]: 26.7%
- Complete response, number [9, 11]: 4
- Partial response, (%) [9, 11]: 0 (0) %
- Partial response, number [9, 11]: 0 (0)
- Progression, (%) [9, 11]: 53.3%
- Progression, number [9, 11]: 8
- Stable response, (%) [9, 11]: 20.0%
- Stable response, number [9, 11]: 3
- Complete response, (%) [9, 12]: 20.0%
- Complete response, number [9, 12]: 3
- Partial response, (%) [9, 12]: 0 (0) %
- Partial response, number [9, 12]: 0 (0)
- Progression, (%) [9, 12]: 66.7%
- Progression, number [9, 12]: 10
- Stable response, (%) [9, 12]: 13.3%
- Stable response, number [9, 12]: 2

Compound: C[C@]12CCC(=O)C[C@@H]1CC[C@@H]1[C@@H]2CC[C@]2(C)[C@@H](O)CC[C@@H]12 [DHT]
- Cholesterol [7]: 2.44 ± 0.16 mmol/L
- GnRH mRNA levels silver grains per cell [7]: 38.8 ± 0.7 silver grains per cell
- Serum Alkaline phosphatase [7]: 56 ± 5 IU/L
- Triglycerides [7]: 0.9 ± 0.1 mmol/L
- Urinary OH-proline/creatinin [7]: 7.8 ± 0.7 μmol/mmol
- LH [7]: 1.55 ± 0.27 ng/mL

Compound: CC/C(=C(/c1ccc(OCCN(C)C)cc1)c1cccc(O)c1)c1ccccc1 [Droloxifene]
- function as SERM (estrogen receptor): found to function as SERMs

Compound: C[C@]12CC[C@@H]3c4ccc(O)cc4CC[C@H]3[C@@H]1CC[C@@H]2O [E2, 17β-estradiol]
- Cholesterol [7]: 2.02 ± 0.15 mmol/L
- GnRH mRNA levels silver grains per cell [7]: 40.4 ± 0.8 silver grains per cell
- Serum Alkaline phosphatase [7]: 41 ± 5 IU/L
- Triglycerides [7]: 0.8 ± 0.1 mmol/L
- Urinary OH-proline/creatinin [7]: 9.2 ± 0.9 μmol/mmol
- LH [7]: 2.37 ± 0.45 ng/mL

Compound: CC1=C(c2ccc(O)cc2)[C@H](c2ccc(OCCN3CCCCC3)cc2)Oc2cc(O)ccc21.Cl [EM-01538, (S)-(+)-7-hydroxy-3-(4′-hydroxyphenyl)-4-methyl-2-(4″-(2′″-piperidinoethoxy)phenyl)-2H-1-benzopyran hydrochloride]
- solid state stability (Solid state stability): good solid state stability

Compound: C[C@]12CC[C@@H]3c4ccc(O)cc4C[C@@H](CCCCCCCCC[S+]([O-])CCCC(F)(F)C(F)(F)F)[C@H]3[C@@H]1CC[C@@H]2O (some centres unmarked) [ICI 182,780]
- function as SERM (estrogen receptor): found not to function as SERMs

Compound: CC(=O)O[C@]1(C(C)=O)CC[C@H]2[C@@H]3C[C@H](C)C4=CC(=O)CC[C@]4(C)[C@H]3CC[C@@]21C [MPA]
- Cholesterol [7]: 2.55 ± 0.14 mmol/L
- GnRH mRNA levels silver grains per cell [7]: 35.5 ± 0.7 silver grains per cell
- Serum Alkaline phosphatase [7]: 57 ± 4 IU/L
- Triglycerides [7]: 1.3 ± 0.1 mmol/L
- Urinary OH-proline/creatinin [7]: 11.7 ± 1.2 μmol/mmol
- LH [7]: 2.51 ± 0.20 ng/mL

Compound: C[C@]12CC[C@@H]3c4ccc(O)cc4CC[C@H]3[C@@H]1CCC2=O [estrone]
- Complete response, (%) [9, 13]: 0%
- Complete response, number [9, 13]: 0 (0)
- Partial response, (%) [9, 13]: 0 (0) %
- Partial response, number [9, 13]: 0 (0)
- Progression, number [9, 13]: 14
- Stable response, (%) [9, 13]: 12.5%
- Stable response, number [9, 13]: 2
- Complete response, (%) ([9]; E1 0.5 μg s.c. daily alone, OVX nude mice, listed as E1): 0 (0) %

Compound: C[C@]12CC[C@H]3[C@@H](CCC4=CC(=O)CC[C@@H]43)[C@@H]1CC[C@@H]2O [nandrolone]
- patients with androgenic side-effects (postmenopausal women): 50%
